According to patent publication US20240190866A1, “POLYHYDROXYLATED INDOLIZIDINE AND PYRROLIZIDINE DERIVATIVES AND USES THEREOF” (Academia Sinica, priority 2021, published 2024):

Tests used:
[1] = target: human Golgi α-mannosidase II (α-hGMII) (Homo sapiens (Human), UniProt Q16706); assay: Golgi α-mannosidase II (α-hGMII) activity assay, 4-MU-α-D-mannopyranoside substrate; assay type: biochemical; settings: pH 7.0, 37° C., 2 h
Protocol: Compounds were diluted to give the final concentration of 100 μM and mixed with 4-MU-α-D-mannopyranoside as substrate and human Golgi α-mannosidase II in phosphate buffer (0.1 M Sodium phosphate dibasic, pH 7.0) or human lysosomal α-mannosidase in citric phosphate buffer (0.1 M Sodium phosphate monobasic monohydrate, 0.5 mM citric acid monohydrate, pH 4.6). The assay was carried out at 37° C. for a certain time (1 h for α-hLM, 2 h for α-hGMII). Stop solution (0.5 M K2CO3(aq), pH 10.8) was then added to the reactions and the fluorescence was determined at 355 nm excitation and 460 nm emission (SpectraMax M5, Molecular Devices). Inhibition was performed as relative enzyme activity to control. The active compounds were selected for libraries preparation and further tested at lower concentration to determine their IC50 values. The assays performed in 384-wells of the microtiter plates.

[2] = Serum biochemistry assay in Huh7 xenograft mice; assay type: in vivo, NOD-SCID mice; settings: serum, 30 mg/kg i.p., twice a week
Protocol: All blood specimens were collected in tubes and were left at 25° C. for 30 min to clot and centrifuged for 10 min at 1200 g. The concentrations of the following biochemical serum analytes collected were measured with FUJI DRI-CHEM 500i analyzer (FUJIFILM Corp., Tokyo, Japan) using the manufacturer's reagents and according to the manufacturer's instructions: Alanine Aminotransferase ALT), Aspartate Aminotransferase (AST), Blood Urea Nitrogen (BUN), Creatinine (CRE) and Total Bilirubin (TBIL).
HCC xenografts were established in 5-6 weeks old NOD-SCID mice by subcutaneous inoculation of about 5×10^6 Huh7 cells suspended in 50 μL PBS+50 μL, Matrigel (Corning, 394230) in the left and right flanks of each mouse. After one week of inoculation, tumors were palpable and the mice were assigned randomly to 1 of 4 treatment groups. Group 1 (vehicle control group, n=6) mice only received a vehicle solution containing Kolliphor EL (Sigma Aldrich, C5135), 99.9% ethanol and water in a ratio of 1:1:6. Groups 2, 3, 4 and 5 mice were intraperitoneally injected with the test compound (e.g., compound ACK900, ACK901, or ACK902) (30 mg/kg, ip, n=7/group) or sorafenib (30 mg/kg, ip, n=6/group), twice per week for 25 days. The tumor volume was calculated by the formula of a ratioinal ellipsoid: [0.5236×short axis) m1^2×(long axis)m^2], and the tumor volume was measured twice per week. All mice were sacrificed at 27 days after the treatment started. Tumor tissues were isolated, photographed and weighted.
In vivo tumor growth inhibition studies in human Huh7 xenograft rodents were performed in accordance with procedures as described in the “Material and Method” section. Xenograft tumors were generated by implanting Huh7 cells (5×10^6) subcutaneously into the left and right flanks of each NOD-SCID mouse. Starting on the 7th day after the inoculation of Huh7 cells, the mice were injected with ACK900, ACK901, ACK902 or sorafenib intraperitoneally (i.p.) at a dose of 30 mg/kg and twice a week for 34 days.

human Golgi α-mannosidase II (α-hGMII), sequence (Q16706 whole entry): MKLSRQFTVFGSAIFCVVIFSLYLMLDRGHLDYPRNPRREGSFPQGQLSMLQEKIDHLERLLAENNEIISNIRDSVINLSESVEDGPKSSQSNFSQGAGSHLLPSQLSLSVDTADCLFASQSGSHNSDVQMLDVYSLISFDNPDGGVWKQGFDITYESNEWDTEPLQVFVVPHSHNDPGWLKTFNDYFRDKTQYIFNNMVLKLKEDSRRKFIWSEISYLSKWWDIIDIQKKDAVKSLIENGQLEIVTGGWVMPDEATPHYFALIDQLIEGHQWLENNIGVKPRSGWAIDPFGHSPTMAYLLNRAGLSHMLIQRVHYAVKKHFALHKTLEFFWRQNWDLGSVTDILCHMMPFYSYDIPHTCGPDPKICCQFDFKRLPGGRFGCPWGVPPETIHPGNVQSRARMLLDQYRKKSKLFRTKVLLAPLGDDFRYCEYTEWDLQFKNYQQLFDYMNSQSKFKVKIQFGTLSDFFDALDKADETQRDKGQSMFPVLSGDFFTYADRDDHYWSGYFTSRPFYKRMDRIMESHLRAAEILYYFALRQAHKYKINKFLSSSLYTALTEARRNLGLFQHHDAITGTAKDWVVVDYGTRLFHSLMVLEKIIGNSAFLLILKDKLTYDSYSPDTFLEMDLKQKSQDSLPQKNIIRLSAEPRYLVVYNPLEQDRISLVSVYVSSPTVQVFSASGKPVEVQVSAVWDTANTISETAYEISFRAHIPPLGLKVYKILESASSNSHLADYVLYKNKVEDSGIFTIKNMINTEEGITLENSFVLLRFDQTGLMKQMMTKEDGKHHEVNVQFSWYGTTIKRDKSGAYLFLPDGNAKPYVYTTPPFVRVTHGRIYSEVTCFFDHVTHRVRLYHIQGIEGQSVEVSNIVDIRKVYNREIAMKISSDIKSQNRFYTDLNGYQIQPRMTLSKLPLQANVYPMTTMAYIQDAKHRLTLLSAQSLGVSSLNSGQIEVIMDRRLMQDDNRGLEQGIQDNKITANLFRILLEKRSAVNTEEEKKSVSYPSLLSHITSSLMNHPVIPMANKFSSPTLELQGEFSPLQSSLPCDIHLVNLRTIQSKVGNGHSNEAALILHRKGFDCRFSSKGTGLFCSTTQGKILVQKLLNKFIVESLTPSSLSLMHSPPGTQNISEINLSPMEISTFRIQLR

CCC[C@H]1CC[C@H](c2ccc(NC(=S)NC[C@@H]3[C@@H](O)[C@@H](O)[C@H]4[C@H](O)CCCN43)cc2)CC1 [ACK900] showed an IC50 [1] of 100 nM, an ALT [2] of 101.57 ± 70.63 U/L and an AST [2] of 223.42 ± 157.00 U/L. It also gave a BUN [2] of 22.37 ± 4.41 mg/dL, a CRE [2] of 0.33 ± 0.05 mg/dL and a TBIL [2] of 0.55 ± 0.18 mg/dL.
